How the values were obtained:
Assay type in all cases: cell-based, mouse
[1] = test system: β-galactosidase in CMV-LacZ C2C12 myoblasts; assay: CMV-LacZ secondary screen in C2C12 myoblasts (β-Gal stabilizing assay); details: CMV-LacZ C2C12 myoblasts
How it was run: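 A secondary screen identifies compounds that stabilize β-gal independently of the native promoter, using CMV-LacZ C2C12 cells. Curves span 0.5–40 μM at six levels, in duplicate.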

[2] = test system: α7 integrin (LacZ reporter in α7+/LacZ myotubes); assay: Myotube α7 integrin FDG assay (Burkin assay in myotubes, 96-well); details: myotubes
[3] = test system: β-galactosidase in CMV-LacZ C2C12 myotubes; assay: CMV-LacZ secondary screen in C2C12 myotubes (β-Gal stabilizing assay); details: C2C12 CMV-LacZ myotubes, fold relative to DMSO
How it was run: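 CMV-LacZ C2C12 line (clonal, FDG-screened); myoblasts/myotubes dosed 0.5–40 μM (0.5, 1, 5, 10, 20, 40 μM); n=2 per point; β-gal stabilization read-out.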

[4] = test system: α7 integrin (LacZ reporter in α7βgal+/− myoblasts); assay: Myoblast α7+/LacZ integrin FDG assay (Burkin assay in myoblasts, 96-well); details: α7+/LacZ myoblasts, 96-well

COC(=O)c1cc(S(=O)(=O)NCC2CCN(Cc3ccc(Cl)cc3)CC2)cn1C [MLS001095033-01]
CMV-LACZ in Myoblasts (β-galactosidase activity relative to DMSO) ([1]; 0.5 uM): 0.9488
CMV-LACZ in Myoblasts (β-galactosidase activity relative to DMSO) ([1]; 1 uM): 0.9179
CMV-LACZ in Myoblasts (β-galactosidase activity relative to DMSO) ([1]; 5 uM): 0.9043
CMV-LACZ in Myoblasts (β-galactosidase activity relative to DMSO) ([1]; 10 uM): 1.0269
CMV-LACZ in Myoblasts (β-galactosidase activity relative to DMSO) ([1]; 20 uM): 0.9359
CMV-LACZ in Myoblasts (β-galactosidase activity relative to DMSO) ([1]; 40 uM): 0.9811
Burkin Assay in Myotubes, α7 integrin LacZ reporter signal relative to DMSO ([2]; 0.5 uM): 0.9959
Burkin Assay in Myotubes, α7 integrin LacZ reporter signal relative to DMSO ([2]; 1 uM): 0.9488
Burkin Assay in Myotubes, α7 integrin LacZ reporter signal relative to DMSO ([2]; 5 uM): 0.944
Burkin Assay in Myotubes, α7 integrin LacZ reporter signal relative to DMSO ([2]; 10 uM): 0.9298
Burkin Assay in Myotubes, α7 integrin LacZ reporter signal relative to DMSO ([2]; 20 uM): 0.8938
Burkin Assay in Myotubes, α7 integrin LacZ reporter signal relative to DMSO ([2]; 40 uM): 0.9158
CMV-LACZ in Myotubes, signal relative to DMSO ([3]; 0.5 uM): 1.2895
CMV-LACZ in Myotubes, signal relative to DMSO ([3]; 1 uM): 1.0867
CMV-LACZ in Myotubes, signal relative to DMSO ([3]; 5 uM): 1.0230
CMV-LACZ in Myotubes, signal relative to DMSO ([3]; 10 uM): 1.0031
CMV-LACZ in Myotubes, signal relative to DMSO ([3]; 20 uM): 1.0326
CMV-LACZ in Myotubes, signal relative to DMSO ([3]; 40 uM): 1.0358
Burkin Assay in Myoblasts, signal relative to DMSO ([4]; 0.5 uM): 1.281
Burkin Assay in Myoblasts, signal relative to DMSO ([4]; 1 uM): 1.186
Burkin Assay in Myoblasts, signal relative to DMSO ([4]; 5 uM): 0.9632
Burkin Assay in Myoblasts, signal relative to DMSO ([4]; 10 uM): 0.9614
Burkin Assay in Myoblasts, signal relative to DMSO ([4]; 20 uM): 1.125
Burkin Assay in Myoblasts, signal relative to DMSO ([4]; 40 uM): 1.0618

Cc1cccc(NCC(=O)N/N=C\c2ccccn2)c1 [MLS000710288-01]
CMV-LACZ in Myoblasts (β-galactosidase activity relative to DMSO) ([1]; 0.5 uM): 1.0338
CMV-LACZ in Myoblasts (β-galactosidase activity relative to DMSO) ([1]; 1 uM): 0.9325
CMV-LACZ in Myoblasts (β-galactosidase activity relative to DMSO) ([1]; 5 uM): 1.0737
CMV-LACZ in Myoblasts (β-galactosidase activity relative to DMSO) ([1]; 10 uM): 1.2515
CMV-LACZ in Myoblasts (β-galactosidase activity relative to DMSO) ([1]; 20 uM): 1.1193
CMV-LACZ in Myoblasts (β-galactosidase activity relative to DMSO) ([1]; 40 uM): 0.9063
Burkin Assay in Myotubes, α7 integrin LacZ reporter signal relative to DMSO ([2]; 0.5 uM): 1.076
Burkin Assay in Myotubes, α7 integrin LacZ reporter signal relative to DMSO ([2]; 1 uM): 0.9575
Burkin Assay in Myotubes, α7 integrin LacZ reporter signal relative to DMSO ([2]; 5 uM): 1.084
Burkin Assay in Myotubes, α7 integrin LacZ reporter signal relative to DMSO ([2]; 10 uM): 0.9598
Burkin Assay in Myotubes, α7 integrin LacZ reporter signal relative to DMSO ([2]; 20 uM): 1.024
Burkin Assay in Myotubes, α7 integrin LacZ reporter signal relative to DMSO ([2]; 40 uM): 0.8202
CMV-LACZ in Myotubes, signal relative to DMSO ([3]; 0.5 uM): 1.0371
CMV-LACZ in Myotubes, signal relative to DMSO ([3]; 1 uM): 1.1133
CMV-LACZ in Myotubes, signal relative to DMSO ([3]; 5 uM): 1.0717
CMV-LACZ in Myotubes, signal relative to DMSO ([3]; 10 uM): 1.1225
CMV-LACZ in Myotubes, signal relative to DMSO ([3]; 20 uM): 0.9400
CMV-LACZ in Myotubes, signal relative to DMSO ([3]; 40 uM): 0.8905
Burkin Assay in Myoblasts, signal relative to DMSO ([4]; 0.5 uM): 1.168
Burkin Assay in Myoblasts, signal relative to DMSO ([4]; 1 uM): 1.305
Burkin Assay in Myoblasts, signal relative to DMSO ([4]; 5 uM): 1.3928
Burkin Assay in Myoblasts, signal relative to DMSO ([4]; 10 uM): 1.1778
Burkin Assay in Myoblasts, signal relative to DMSO ([4]; 20 uM): 0.8681
Burkin Assay in Myoblasts, signal relative to DMSO ([4]; 40 uM): 0.5963

CCc1c(C)sc(NC(=O)c2ccco2)c1C#N [MLS001240181-01]
CMV-LACZ in Myoblasts (β-galactosidase activity relative to DMSO) ([1]; 0.5 uM): 0.9550
CMV-LACZ in Myoblasts (β-galactosidase activity relative to DMSO) ([1]; 1 uM): 1.0441
CMV-LACZ in Myoblasts (β-galactosidase activity relative to DMSO) ([1]; 5 uM): 0.8408
CMV-LACZ in Myoblasts (β-galactosidase activity relative to DMSO) ([1]; 10 uM): 1.1645
CMV-LACZ in Myoblasts (β-galactosidase activity relative to DMSO) ([1]; 20 uM): 1.0367
CMV-LACZ in Myoblasts (β-galactosidase activity relative to DMSO) ([1]; 40 uM): 0.8907
Burkin Assay in Myotubes, α7 integrin LacZ reporter signal relative to DMSO ([2]; 0.5 uM): 1.174
Burkin Assay in Myotubes, α7 integrin LacZ reporter signal relative to DMSO ([2]; 1 uM): 1.214
Burkin Assay in Myotubes, α7 integrin LacZ reporter signal relative to DMSO ([2]; 5 uM): 1.643
Burkin Assay in Myotubes, α7 integrin LacZ reporter signal relative to DMSO ([2]; 10 uM): 0.9683
Burkin Assay in Myotubes, α7 integrin LacZ reporter signal relative to DMSO ([2]; 20 uM): 0.8871
Burkin Assay in Myotubes, α7 integrin LacZ reporter signal relative to DMSO ([2]; 40 uM): 0.7905
CMV-LACZ in Myotubes, signal relative to DMSO ([3]; 0.5 uM): 0.9519
CMV-LACZ in Myotubes, signal relative to DMSO ([3]; 1 uM): 1.0511
CMV-LACZ in Myotubes, signal relative to DMSO ([3]; 5 uM): 1.0895
CMV-LACZ in Myotubes, signal relative to DMSO ([3]; 10 uM): 0.9955
CMV-LACZ in Myotubes, signal relative to DMSO ([3]; 20 uM): 1.0976
CMV-LACZ in Myotubes, signal relative to DMSO ([3]; 40 uM): 1.1376
Burkin Assay in Myoblasts, signal relative to DMSO ([4]; 0.5 uM): 1.082
Burkin Assay in Myoblasts, signal relative to DMSO ([4]; 1 uM): 1.081
Burkin Assay in Myoblasts, signal relative to DMSO ([4]; 5 uM): 1.4585
Burkin Assay in Myoblasts, signal relative to DMSO ([4]; 10 uM): 1.074
Burkin Assay in Myoblasts, signal relative to DMSO ([4]; 20 uM): 1.153
Burkin Assay in Myoblasts, signal relative to DMSO ([4]; 40 uM): 1.198
